From patent EP1839675A1, “NOVEL METHOD OF PROTECTING ISCHEMIC CARDIOPATHY” (Japan Science and Technology Agency, priority 2004, dated 2006)

Legend:
rat ventricular myocytes [1] = assay: Nuclear DNA fragmentation (apoptosis) by Cell Death Detection ELISA, enrichment factor; format: cell-based; conditions: NPPB 50 µM or dbcAMP 1mM + PMA 100 nM
Description: Primary cultures of rat ventricular myocytes were prepared and cultured in the manner described in Example 1. The procedures of Example 1 were also used to expose the primary cultures of rat ventricular myocytes to ischemic treatment (removal of glucose and oxygen) and post-ischemic reperfusion. The primary cultures of rat ventricular myocytes were administered with CFTR channel activator (PKA activator dbcAMP (1mM) + PKC activator PMA (100 nM)), or CFTR channel blocker (NPPB (50 µM)). Administration was made at the start of ischemic treatment, which lasted 8 hours. Fragmentation of nuclear DNA in the cells was assayed immediately after ischemia or 96 hours after post-ischemic reperfusion (Figure 5). Specifically, DNA fragmentation was assayed using a method (DNA fragmentation detecting method (Cell Death Detection ELIZA kit^PLUS (Roche Diagnostics), which specifically detects […] that are characteristics of apoptotic cells. The result of measurement was obtained as enrichment factor, which was calculated according to the following formula. Enrichment factor (rate of nuclear DNA fragmentation) = absorbance of sample (dead cells)/absorbance of control (untreated cells) [formula]

rat ventricular myocytes [2] = assay: Necrotic cell death by Hoechst 33342 / propidium iodide double staining immediately after ischemia; format: cell-based; conditions: Ventricular myocyte, NPPB 50 µM at start of ischemic treatment, after 8 hours of ischemia, group without reagent 44.4%, read-out: cells stained by PI
Description: Primary cultures of rat ventricular myocytes were prepared and cultured in the manner described in Example 1. The procedures of Example 1 were also used to expose the primary cultures of rat ventricular myocytes to ischemic treatment (removal of glucose and oxygen). […] Immediately after ischemia, cells were double stained to examine a rate of necrotic cell death, using Hoechst 33342 and propidium iodide (PI) according to a method known in the art. Hoechst 33342 stains the nucleus of all cells, and propidium iodide (PI) stains only dead cells with necrosis-induced membrane injury.

[3] = tested on: neonatal rat ventricular myocytes; assay: Cell viability (MTT) after ischemic treatment and post-ischemic reperfusion in primary cultures; format: cell-based; conditions: for effect of dbcAMP + PMA on cell viability under co-application of CFTR channel blocker: DP plus NPPB 50 µM, glibenclamide 500 µM, gemfibrozil 2 mM or 9AC 2 mM during ischemic treatment, MTT after 96 hours reperfusion
Description: Primary cultures of ventricular myocytes were prepared from the hearts of neonatal rats by enzyme treatment. M199+10% FBS was used as culture medium. To reduce the number of contaminating non-myocardial cells, the medium was supplemented with 100 µM BrdU during incubation. The primary cell cultures of rat myocardial cells were subjected to ischemic treatment (removal of glucose and oxygen) and post-ischemic reperfusion according to the following procedures. The medium was replaced with a glucose-free solution, which contained 108 mM NaCl, 0.5 mM MgCl2, 5.4 mM KCl, 1mM CaCl2, and 5 mM HEPES (pH adjusted to 7.4 with NaHCO3), and were incubated at 37°C for 8 hours under anaerobic conditions, which were created by replacing air with a gas mixture of 95% Ar and 5% CO2. Immediately after incubation, the solution was replaced with a glucose-containing normal medium (M199+10% FBS), and then left in a CO2 incubator (95% air (20% O2), 5% CO2, 37°C) for 96 hours (reperfusion: re-supply of glucose/reoxygenation). Cl^- channel blocker (NPPB) was administered to the primary cell cultures of rat ventricular myocytes 1 hour prior to ischemic treatment, or at the start of ischemic treatment that lasted 8 hours. Cl- channel blocker (NPPB) was also administered over a time period of 18 hours after the start of post-ischemic reperfusion. Cell viability was assayed using MTT. To ensure accuracy in viable cell count, the assay was performed using cells obtained 96 hours after the start of post-ischemic reperfusion (Figure 1).
Primary cultures of rat ventricular myocytes were prepared and cultured in the manner described in Example 1. The procedures of Example 1 were also used to expose the primary cultures of rat ventricular myocytes to ischemic treatment (removal of glucose and oxygen) and post-ischemic reperfusion.
(§1) During ischemic treatment, the primary cultures of rat ventricular myocytes were administered with CFTR channel activator (PKA activator dbcAMP (1mM) or PKC activator PMA (100 nM), or both (DP)), or CFTR channel activator + CFTR channel blocker (NPPB (50 µM), glibenclamide (500 µM), gemfibrozil (2 mM), or 9AC (2 mM)). Following administration, ischemia was induced for 8 hours, and, after 96 hours of subsequent reperfusion, cell viability was assayed using MTT (Figure 2).
as §1, with “(milrinone (0.73 µg, 1 ml), isoproterenol (10 nM), and” for “(PKA activator dbcAMP (1mM) or PKC activator”, “nM) used together (MIP)),” for “nM), or both (DP)),”, “3).” for “2).”

ischemic cardiac muscle = conditions: cited from earlier work; for effect on ischemic cardiac muscle: administered after a period of ischemia; for size of infarct in ischemic cardiac muscle: pre-ischemic administration
[4] = extended period (45 minutes); cited from earlier work
[5] = cited from earlier work
[6] = dbcAMP 1mM and/or PMA 100 nM during ischemic treatment, 8 hours ischemia, 96 hours reperfusion, MTT (Figure 2)

## O=C(O)c1cc([N+](=O)[O-])ccc1NCCCc1ccccc1 [NPPB, 5-nitro-2-2(3-phenylpropylamino)-benzoate]
Rat ventricular myocytes [1]; 96 hours after reperfusion, compared with non-administered group
  level of DNA fragmentation: no significant difference
Rat ventricular myocytes [1]; immediately after 8 hours ischemia, compared with non-ischemic cells (score of 1)
  level of DNA fragmentation: the same
Rat ventricular myocytes [2]
  cytotoxicity at 50 µM: 90.3%
[3]; 50 µM NPPB administered during ischemic treatment (8 hours), MTT 96 hours after start of reperfusion
  cell viability: significant reduction
[3]
  effect of dbcAMP + PMA on cell viability under co-application of CFTR channel blocker: completely abolished

## CCCCCCCCCCCCCC(=O)O[C@@H]1[C@@H](C)[C@@]2(O)[C@@H](C=C(CO)C[C@]3(O)C(=O)C(C)=C[C@@H]23)[C@@H]2C(C)(C)[C@]12OC(C)=O [PMA, phorbol 12-myristate 13-acetate]
[3]; [6]
  cell viability: could not produce the effect

## Nc1cc(-c2ccncc2)c[nH]c1=O [amrinone]
Ischemic cardiac muscle
  effect on ischemic cardiac muscle: do not exhibit any effect
  size of infarct in ischemic cardiac muscle: effective in reducing the size of infarct

## CC(C)c1ccc(C(=O)NC(=N)N)cc1S(C)(=O)=O [cariporide]
[4]
  effect on injury caused by post-ischemic reperfusion: ineffective

## CCCC(=O)Nc1ncnc2c1ncn2[C@@H]1O[C@@H]2COP(=O)(O)O[C@H]2[C@H]1OC(=O)CCC [dbcAMP, N6,2'-O-dibutyriladenosine-3':5'-cyclic monophosphate]
[3]; [6]
  cell viability: could not produce the effect

## Cc1ccc(C)c(OCCCC(C)(C)C(=O)O)c1 [gemfibrozil]
[3]
  effect of dbcAMP + PMA on cell viability under co-application of CFTR channel blocker: completely abolished

## COc1ccc(Cl)cc1C(=O)NCCc1ccc(S(=O)(=O)NC(=O)NC2CCCCC2)cc1 [glibenclamide]
[3]
  effect of dbcAMP + PMA on cell viability under co-application of CFTR channel blocker: completely abolished

## Cc1[nH]c(=O)c(C#N)cc1-c1ccncc1 [milrinone, 1,6-dihydro-2-methyl-6-oxo[3,4'-bipyridine]-5-carbonitrile]
[5]; blood
  milrinone in the blood circulating bound to protein: about 70%
[5]; in vivo
  excretion / metabolism: released into urine without being metabolized
  half-life: 2 h
Ischemic cardiac muscle
  effect on ischemic cardiac muscle: do not exhibit any effect
  size of infarct in ischemic cardiac muscle: effective in reducing the size of infarct
